Reference: ChEMBL document CHEMBL4680271, “COVID-19: Drug Targets and Potential Treatments” (J Med Chem, 2020)

Columns and labels:
[1] = biological target: Procathepsin L (Homo sapiens) (UniProt P07711); test: Inhibition of Cathepsin L in HEK293 cells harboring human ACE2 assessed as reduction in SARS-CoV-2 S pseudovirions entry into host cell pretreated for 1 hr followed by viral infection and measured after overnight incubation by luciferase method; assay type: cell-based; conditions: concentration not given here
Sequence of Procathepsin L (Homo sapiens) (P07711 114-333 limits assumed): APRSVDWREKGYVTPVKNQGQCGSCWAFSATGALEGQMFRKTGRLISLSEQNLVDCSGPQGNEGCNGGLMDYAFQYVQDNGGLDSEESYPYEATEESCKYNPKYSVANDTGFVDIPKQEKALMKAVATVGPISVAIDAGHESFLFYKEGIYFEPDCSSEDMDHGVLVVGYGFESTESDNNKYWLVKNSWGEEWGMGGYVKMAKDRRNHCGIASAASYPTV

[2] = system: SARS-CoV-2; test: Antiviral activity against nCoV-2019 BetaCoV/Wuhan/WIV04/2019 infected in African green monkey VeroE6 cells assessed as reduction in viral yield preincubated for 1 hr followed by viral infection and further replacement of fresh medium containing compound and measured at 48 hrs post infection by qRT-PCR method; assay type: functional, organism-based; conditions: Severe acute respiratory syndrome coronavirus 2, BetaCoV/Wuhan/WIV04/2019, Vero C1008

Row | SMILES | inhibition [1] [%] | EC50 [2] [µM]
1 | CCc1ccccc1NC(=O)CSC(=O)NNC(=O)[C@H](Cc1c[nH]c2ccccc12)NC(=O)OC(C)(C)C | > 76 | 
2 | Nc1nc2c(ncn2CCC(CO)CO)c(=O)[nH]1 [PENCICLOVIR] |  | 96
